For 23 molecules, inhibition results are on record in patent US8598190B2, “3H-imidazo [4, 5-C] pyridine-6-carboxamides as anti-inflammatory agents” (Boehringer Ingelheim International GmbH, priority 2008, dated 2013).

This assay deals with T1, recombinant human mPGES-1 (Homo sapiens, UniProt O14684).
T1 construct: made in house; host or cells: Rosetta E. coli (microsomal/membrane fraction)
T1 sequence (O14684 1-152): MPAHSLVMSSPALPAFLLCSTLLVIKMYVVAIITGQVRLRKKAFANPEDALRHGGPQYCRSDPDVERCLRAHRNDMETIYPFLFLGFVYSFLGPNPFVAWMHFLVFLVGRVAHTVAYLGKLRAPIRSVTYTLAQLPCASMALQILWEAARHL
The assay can be described thus: mPGES-1 inhibition test (microsomes, HTRF detection of PGE2). In kind it is biochemical. As to the method: Microsomes from Rosetta E. coli bacteria expressing recombinant human mPGES-1 is dissolved in 0.1 M KPi pH 7.4 buffer containing 2.5 mM GSH. 50 μl of the enzyme is subsequently dispensed in a 384-well plate. 0.5 μl of the inhibitor dissolved in DMSO at is thereafter added to each well and incubated for 25 minutes at room temperature.
Subsequently, 2 μl of PGH2 dissolved in an appropriate solvent is added to each well and after one minute the acidified stop solution containing FeCl2 is added. 4 μl of the total volume is transferred to a separate plate and diluted 750-fold in two separate steps before HTRF detection of PGE2.
The HTRf detection is performed by the use of a commercially available kit from CisBio essentially according to the manufacturer's protocol. Briefly, 10 μl of the diluted sample is transferred to a white 384-well plate. 5 μl of d2 and 5 μl Eu3+-Cryptate labeled anti-PGE2 is added to each well containing samples by the use of a Multidrop. The plate is covered with a plastic self-adhesive film, centrifuged at 1200 rpm for 1 minute and subsequently stored at +4° C. over night.
After over night incubation the fluorescence is measured by the use of an appropriate microplate reader. The fluorescence of europium cryptate, and d2 are measured using the following excitation and emission wavelength, europium cryptate: λmax^ex=307 nm, λmax^em=620 nm and d2: λmax^ex=620 nm, λmax^em=665 nm), respectively. The extent of the specific FRET is measured as a ratio of the emission intensity at 665 nm vs. that at 620 nm. A standard curve using synthetic PGE2 is used to quantify the amount of PGE2 in unknown samples.
In general terms: TR-FRET usually uses a lanthanide donor and a delayed reading to cut background.
Take `Cn1c(Nc2c(F)cccc2Cl)nc2cc(C(=O)NCc3ncccc3C(F)(F)F)ncc21` [Example 504, 2-(2-Chloro-6-fluorophenylamino)-3-methyl-N-((3-trifluoromethyl-pyridin-2-yl)-methyl)-3H-imidazo[4,5-c]pyridine-6-carboxamide]: the inhibition (as a rule, the change of the read-out against control, counted positive when it falls) at 10 µM came to 100%.

In the case of `CC(C)(C)c1ccnc(NC(=O)c2cc3[nH]c(Nc4c(Cl)cccc4Cl)nc3cn2)c1` [Example 396, N-(4-tert.-Butyl-pyridin-2-yl)-2-(2,6-dichlorophenylamino)-1H-imidazo[4,5-c]pyridine-6-carboxamide], the inhibition at 10 µM was 100%. Under `Cn1c(Nc2c(Cl)cccc2Cl)nc2cc(C(=O)Nc3cc(C(F)(F)F)ccn3)ncc21` [Example 364, 2-(2,6-Dichlorophenylamino)-3-methyl-N-(4-trifluoromethyl-pyridin-2-yl)-3H-imidazo[4,5-c]pyridine-6-carboxamide] stands 100%; under `O=C(Nc1cc(C(F)(F)F)ccn1)c1cc2[nH]c(Nc3c(F)cccc3C(F)(F)F)nc2cn1` [Example 727, 2-(2-Fluoro-6-trifluoromethyl-phenylamino)-N-(4-trifluoromethyl-pyridin-2-yl)-1H-imidazo[4,5-c]pyridine-6-carboxamide], 99%; under `Cc1cc(NC(=O)c2cc3[nH]c(Nc4c(Cl)cccc4Cl)nc3cn2)ncc1F` [Example 719, 2-(2,6-Dichlorophenylamino)-N-(5-fluoro-4-methyl-pyridin-2-yl)-1H-imidazo[4,5-c]pyridine-6-carboxamide], 100%. Under `Cn1c(Nc2c(Cl)cncc2Cl)nc2cc(C(=O)N[C@H]3CC[C@H](C(F)(F)F)CC3)ncc21` [Example 515, 2-(3,5-Dichloropyridin-4-ylamino)-3-methyl-N-((1r,4r)-4-trifluoromethyl-cyclohexyl)-3H-imidazo[4,5-c]pyridine-6-carboxamide] stands 100%; under `O=C(Nc1cc(C(F)(F)F)ccn1)c1cc2[nH]c(Nc3c(Cl)cccc3Cl)nc2cn1` [Example 414, 2-(2,6-Dichlorophenylamino)-N-(4-trifluoromethyl-pyridin-2-yl)-1H-imidazo[4,5-c]pyridine-6-carboxamide], 100%. Take `O=C(Nc1cc(C2CC2)ccn1)c1cc2[nH]c(Nc3c(Cl)cccc3Cl)nc2cn1` [Example 445, N-(4-Cyclopropylpyridin-2-yl)-2-(2,6-dichlorophenylamino)-1H-imidazo[4,5-c]-pyridine-6-carboxamide]: the inhibition at 10 µM was 98%. Under `Cc1cc(C(F)(F)F)cc(NC(=O)c2cc3[nH]c(Nc4c(Cl)cccc4Cl)nc3cn2)n1` [Example 723, 2-(2,6-Dichlorophenylamino)-N-(6-methyl-4-trifluoromethyl-pyridin-2-yl)-1H-imidazo[4,5-c]pyridine-6-carboxamide] stands 100%. Consider `Cn1c(Nc2c(Cl)cccc2Cl)nc2cc(C(=O)Nc3ccc(Br)cc3)ncc21` [Example 365, N-(4-Bromophenyl)-2-(2,6-dichlorophenylamino)-3-methyl-3H-imidazo[4,5-c]pyridine-6-carboxamide], for which the inhibition at 10 µM amounted to 100%.

On to `O=C(Nc1cc(OC2CCCC2)ccn1)c1cc2[nH]c(Nc3c(Cl)cccc3Cl)nc2cn1` [Example 440, N-(4-(Cyclopentyloxy)pyridin-2-yl)-2-(2,6-dichlorophenylamino)-1H-imidazo[4,5-c]pyridine-6-carboxamide], for which the inhibition at 10 µM came to 100%.

Regarding `Cn1c(Nc2c(F)cccc2Cl)nc2cc(C(=O)NC3CCCCC3)ncc21` [Example 444, 2-(2-Chloro-6-fluorophenylamino)-N-cyclohexyl-3-methyl-3H-imidazo[4,5-c]-pyridine-6-carboxamide], the inhibition at 10 µM was determined as 100%.

Regarding `O=C(Nc1cc(C2CCC2)ccn1)c1cc2[nH]c(Nc3c(Cl)cncc3Cl)nc2cn1` [Example 738, 2-(3,5-Dichloro-pyridin-4-yl-amino)-N-(4-cyclobutyl-pyridin-2-yl)-1H-imidazo[4,5-c]pyridine-6-carboxamide], the inhibition at 10 µM was determined as 100%. The value for `O=C(Nc1cc(C(F)(F)F)ccn1)c1cc2[nH]c(Nc3c(F)cc(F)cc3Cl)nc2cn1` [Example 731, 2-(2-Chloro-4,6-difluoro-phenylamino)-N-(4-trifluoromethyl-pyridin-2-yl)-1H-imidazo[4,5-c]pyridine-6-carboxamide] was 100%.

In the case of `Cc1cc(C(F)(F)F)cc(NC(=O)c2cc3[nH]c(Nc4c(Cl)cncc4Cl)nc3cn2)n1` [Example 733, 2-(3,5-Dichloro-pyridin-4-yl-amino)-N-(6-methyl-4-trifluoromethyl-pyridin-2-yl)-1H-imidazo[4,5-c]pyridine-6-carboxamide], the inhibition at 10 µM was 99%. Under `Cn1c(Nc2c(F)cccc2Cl)nc2cc(C(=O)N[C@H]3CC[C@H](C(F)(F)F)CC3)ncc21` [Example 431, 2-(2-Chloro-6-fluorophenylamino)-3-methyl-N-((1r,4r)-4-trifluoromethyl-cyclohexyl)-3H-imidazo[4,5-c]pyridine-6-carboxamide] stands 100%. The value for `O=C(Nc1cc(C(F)(F)F)ccn1)c1cc2[nH]c(Nc3c(Cl)cccc3C(F)(F)F)nc2cn1` [Example 728, 2-(2-Chloro-6-trifluoromethyl-phenylamino)-N-(4-trifluoromethyl-pyridin-2-yl)-1H-imidazo[4,5-c]pyridine-6-carboxamide] was 98%; that for `Cn1c(Nc2cnccc2C(F)(F)F)nc2cc(C(=O)Nc3cc(C(F)(F)F)ccn3)ncc21` [Example 734, 2-(4-Trifluoromethyl-pyridin-3-ylamino)-3-methyl-N-(4-trifluoromethyl-pyridin-2-yl)-3H-imidazo[4,5-c]pyridine-6-carboxamide] was 99%; that for `Cn1c(Nc2c(Cl)cncc2Cl)nc2cc(C(=O)NC3CCC(C)(C)CC3)ncc21` [Example 478, 2-(3,5-Dichloropyridin-4-ylamino)-N-(4,4-dimethylcyclohexyl)-3-methyl-3H-imidazo[4,5-c]pyridine-6-carboxamide] was 100%. The value for `Cn1c(Nc2c(Cl)cncc2Cl)nc2cc(C(=O)Nc3ccc(Br)cc3)ncc21` [Example 472, N-(4-Bromophenyl)-2-(3,5-dichloropyridin-4-ylamino)-3-methyl-3H-imidazo[4,5-c]-pyridine-6-carboxamide] was 96%; that for `O=C(Nc1ccc(Br)cc1)c1cc2[nH]c(Nc3c(Cl)cncc3Cl)nc2cn1` [Example 732, 2-(3,5-Dichloro-pyridin-4-yl-amino)-N-(4-bromo-phenyl)-1H-imidazo[4,5-c]pyridine-6-carboxamide] was 100%. For the molecule `Cc1cc(C)nc(NC(=O)c2cc3[nH]c(Nc4c(Cl)cccc4Cl)nc3cn2)c1` [Example 716, 2-(2,6-Dichlorophenylamino)-N-(4,6-dimethyl-pyridin-2-yl)-1H-imidazo[4,5-c]pyridine-6-carboxamide], the inhibition at 10 µM amounted to 100%. Turning to `O=C(N[C@H]1CC[C@H](C(F)(F)F)CC1)c1cc2[nH]c(Nc3c(Cl)cccc3Cl)nc2cn1` [Example 481, 2-(2,6-Dichlorophenylamino)-N-((1r,4r)-4-trifluoromethyl-cyclohexyl)-1H-imidazo[4,5-c]pyridine-6-carboxamide], the inhibition at 10 µM turned out to be 98%.
